Assays:
[1] = system: lesional skin of patients with moderate atopic dermatitis; assay: Skin thickness in lesional skin biopsies at Day 22; format: in vivo, human; conditions: lesional skin biopsy, Day 22, 2% niclosamide
Method: Patients received topical applications of the niclosamide 2% composition and vehicle once daily for 3 weeks, followed by a 1-week follow up period. Topical niclosamide 2% and vehicle was applied on two separate target lesions of atopic dermatitis (lesions of at least 3×3-cm that are at least 2 cm apart, excluding the face, scalp, genitals, hands, and feet). The application areas (5×5-cm) were randomized (1:1) to once daily application of niclosamide 2% or vehicle at 5 mg/cm^2/day without occlusion 6 days per week. Patients came to the study site for all study product application for a total of 3 weeks. Three skin biopsies were collected in all patients (one from lesional skin at baseline, pre-dosing at Day 1, and two from lesional skin at Day 22 (one where topical niclosamide 2% had been applied and one where the vehicle had been applied). The lesional skin biopsies were analysed for skin thickness and inflammation biomarkers.

[2] = system: lamina propria T cells (expressing CD3); conditions: WO 2017/040864; cited from earlier work
dendritic cell = conditions: in-vitro, Wu et al.; cited from earlier work
[3] = system: lesional skin of patients with moderate atopic dermatitis; assay: Gene expression by microarray (Affymetrix U133A Plus 2) in lesional skin biopsies, Phase II atopic dermatitis study; format: in vivo, human; conditions: microarray fold change
From the text: (§1) 31 patients with moderate atopic dermatitis (Investigator Global Assessment [IGA] of 3) were included in this double-blind, randomized, intraindividual vehicle-controlled, Phase 2 study to evaluate the efficacy and safety of topically applied niclosamide. Patients had at least 2 areas of at least 3×3-cm of atopic dermatitis with a Total Sign Score (TSS) of […] discontinued the study before Day 22.
(§2) Patients received topical applications of the niclosamide 2% composition and vehicle once daily for 3 weeks, followed by a 1-week follow up period. Topical niclosamide 2% and vehicle was applied on two separate target lesions of atopic dermatitis (lesions of at least 3×3-cm that are at least 2 cm apart, excluding the face, scalp, genitals, hands, and feet). The application areas (5×5-cm) were randomized (1:1) to once daily application of niclosamide 2% or vehicle at 5 mg/cm^2/day without occlusion 6 days per week. Patients came to the study site for all study product application for a total of 3 weeks.
(§3) Three skin biopsies were collected in all patients (one from lesional skin at baseline, pre-dosing at Day 1, and two from lesional skin at Day 22 (one where topical niclosamide 2% had been applied and one where the vehicle had been applied). The lesional skin biopsies were analysed for skin thickness and inflammation biomarkers.
(§4) Skin barrier and inflammation biomarker levels were determined from lesional skin biopsies from application areas.
(§5) The skin biopsy samples were analysed by immunohistochemistry (IHC), and by gene expression studies by RT-PCR using TaqMan Low Density Array (TLDA), and by microarray using Affymetrix U133A Plus 2. The immunohistochemistry (IHC) was used to analyse cell biomarkers. The methodologies as disclosed by Guttman-Yassky et al, “Major differences in inflammatory dendritic cells and their products distinguish atopic dermatitis from psoriasis”, The Journal of Allergy and Clinical Immunology, vol. 119, issue 5, pages 1210-1217, 2007, were followed except for that U133A Plus 2-set Gene Chip probe arrays was used instead of U95A-set Gene Chip probe arrays.
Experimental design: The hybridization strategy was in concordance with experimental design principles, by for example keeping all samples from the same patient in the same date, and always include samples from every treatment arm/group.
Quality Control and Pre-processing: Quality control of microarray chips were carried out using standard QC metrics and R package microarray Quality Control. Expression measures were obtained using GCRMA algorithm (Wu & Irizarry, 2004). Several visual and modelling techniques were used to elucidate if batch effect existed. Principal Component analysis plots were used to detect if any evident batch effect existed. If such batch effects were found, they were adjusted using Combat, an empirical Bayes method for adjusting data for batch effects that is robust to outliers in small sample sizes (Johnson, Li, & Rabinovic, 2007). The implementation of Combat by package sva was used.
Probe-sets with at least 5% samples with expression larger than 3 (in log 2-scale) were kept for further analysis. Expression values were modelled using mixed-effect models with fixed factors Visit and Treatment Area and a random effect for each patient. Fold changes for the comparisons of interest were estimated and hypothesis testing was conducted on such comparisons using contrasts under the general framework for linear models in limma package. The inter-replicate correlation was computed by Duplicate Correlation function and the linear model was estimated by ImFit. P-values from the moderated (paired) t-test were adjusted for multiple hypotheses using the Benjamini-Hochberg procedure, which controls for FDR.

[4] = system: lesional skin of patients with moderate atopic dermatitis; assay: Gene expression by qRT-PCR (TLDA) in lesional skin biopsies, Phase II atopic dermatitis study; format: in vivo, human; conditions: qRT-PCR fold change, lesional skin biopsy, Day 22, niclosamide 2% once daily
From the text: as §1, §2, §3, §4, §5
Expression values (threshold cycle [Ct]) were normalized to Rplp0 by negatively transforming the Ct values to −dCt (IL17A was normalized to hARP, as analysed by qPCR). The undetected −dCt values were estimated for each gene as the 20% of the minimum across all samples. qRT-PCR expression data were modelled using a mixed effect model with Visit and Treatment Area as a fixed effect and a random intercept for each patient. This formulation intrinsically models the within patient correlation structure as in the case of a paired t-test. This approach introduces less bias than restricting the analysis for those patients who completed the study. Contrasts were used to estimate the fold changes with treatment within each treatment group and conduct hypothesis testing.

[5] = system: lesional skin of patients with moderate atopic dermatitis; assay: Immunohistochemistry (IHC) of cell markers in lesional skin biopsies, Phase II atopic dermatitis study; format: in vivo, human; conditions: lesional skin biopsy, Day 22, 2% niclosamide
From the text: as §1, §2, §3, §5

lesional AD skin = conditions: Brunner et al; cited from earlier work
[6] = lesional skin biopsy, Day 22, niclosamide 2% once daily
[7] = niclosamide relative to vehicle, Day 22, 2% niclosamide, p<0.05

## O=C(Nc1ccc([N+](=O)[O-])cc1Cl)c1cc(Cl)ccc1O [Niclosamide, niclosamide]
[1]
  skin thickness compared to baseline and compared to vehicle: No differences
[2]
  effect on lamina propria T cells (expressing CD3) isolated from IBD patients: kills
Dendritic cell
  lipopolysaccharide (LPS)-induced dendritic cell maturation and cytokine costimulatory molecule and MHC molecule expression: inhibitory action
[3]; [6]
  ACOX2 Niclosamide vs Predose: 1.40
  ACOX2 Vehicle vs. Niclosamide: −1.40
  CCL13 Niclosamide vs Predose: −1.40
  CCL18 Niclosamide vs Predose: −1.70
  CCL20 Vehicle vs. Niclosamide: 2.00
  CCR1 Niclosamide vs Predose: −1.90
  CCR5 Niclosamide vs Predose: −1.40
  CD86 Niclosamide vs Predose: −1.60
  CXCL1 Vehicle vs. Niclosamide: 2.10
  FA2H Niclosamide vs Predose: 1.50
  IFNGR2 Vehicle vs. Niclosamide: 1.10
  IL4R Niclosamide vs Predose: −1.80
  KRT79 Vehicle vs. Niclosamide: −2.00
  S100A12 Vehicle vs. Niclosamide: 2.30
  SPTLC3 Vehicle vs. Niclosamide: −1.30
[3]; [7]
  CXCL1 downregulated compared to vehicle: −2.10
  S100A12 downregulated compared to vehicle: −2.30
[4]
  CXCL1 Niclosamide vs. Predose: −2.80
  CXCL10 Niclosamide vs. Vehicle: −1.10
  FLG Niclosamide vs. Predose: 1.50
  FLG Niclosamide vs. Vehicle: 1.30
  IL2 Niclosamide vs. Predose: −1.20
  IL17A Niclosamide vs. Vehicle: −1.40
  KRT16 Niclosamide vs. Vehicle: −1.60
  MMP12 Niclosamide vs. Vehicle: −1.90
  S100A7 Niclosamide vs. Vehicle: −2.20
[4]; listed as niclosamide
  FLG Niclosamide vs. Predose: increased significantly
  LOR Niclosamide vs. Predose: increased significantly
[5]
  Langerhans cells: langerin/CD207, compared to baseline: Significant reductions
  dendritic cells: CD11c, compared to baseline: Significant reductions
  dendritic cells: FceR1 in epidermis, compared to baseline: Significant reductions
  total amount of T cells (CD3) in dermis and epidermis, compared to baseline: No significant change

## dupilumab: inhibits interleukin-4 and interleukin-13 signalling by binding to interleukin-4 receptor a; FDA approved for atopic dermatitis
Lesional AD skin
  expression of Th2-associated molecules, such as CCL17, CCL18, and CCL26: reduction
